We go through eight compounds from publication PMC6984391, “Anion carriers as potential treatments for cystic fibrosis: transport in cystic fibrosis cells, and additivity to channel-targeting drugs” (Chemical Science, 2019).

Each structure is given as a SMILES string. Like-named read-outs stand apart in the source and are kept apart here.

Details of assay [1]: method as in ref [16 and 25], [20], [21], [22], [23], [24], [29] (Reference column). The settings on record: 1H NMR titrations with Bu4N^+Cl^– in DMSO-d6/H2O (200 : 1) at 298 K; ref [16 and 25], [20], [21], [22], [23], [24], [29]; cited from earlier work.
Details of assay [2]: method as in ref [20], [21], [23], [24], [29] (Reference column). The settings on record: transporter preincorporated in LUVs (70% POPC + 30% cholesterol), 25 mM NaCl gradient, 225 mM NaNO3; ref [20], [21], [23], [24], [29]; cited from earlier work.
Assay [3] relates to YFP-FRT cells. Briefly: YFP fluorescence plate reader assay of anion transport in YFP-FRT cells. It counts as cell-based, Fischer rat. The settings on record: for anion transport activity in YFP-FRT cells (in words): 50 μM; for Corrected absolute initial slope |dF/dT|: transporter 50 μM, DMSO 0.5% v/v, DMSO-only subtracted, I^– 100 mM. The procedure:
We treated YFP-FRT cells with anionophores (final concentration, 1–50 μM) or the vehicle DMSO (0.1–0.5% v/v) by direct addition to the phosphate-buffered saline (PBS) bathing the cells. After incubating YFP-FRT cells with anionophores for 10 minutes at 37 °C, we evaluated anion transport activity by adding I^– (100 mM), using a PBS iodide solution with Cl^– replaced by I^–, and following cell fluorescence for 14 s. FRT cells are relatively impermeable to anions because they lack key ion channels found in epithelial cells, including CFTR.[33] Thus, in the absence of anionophore, iodide cannot enter YFP-FRT cells and no quenching of fluorescence occurs. By contrast, in the presence of an anionophore, iodide influx occurs leading to fluorescence quenching.[29]
To quantify anion transport by different anionophores, we fitted first order exponential functions to the iodide-induced fluorescence decay to measure the initial slope, averaging values over multiple experiments. Fig. 2b and Table 1 summarise the data. Consistent with our previous results,[29] we observed a wide range of anion transport activity. […] We therefore selected for further study 11, 12, 15 and 19.
FRT cells stably expressing the halide sensor YFP-H148Q/I152L6 were generous gifts of AS Verkman (University of California, San Francisco), while CFBE41o- cells7 stably expressing YFP (YFP-CFBE cells) were a generous gift of LJV Galietta (Telethon Institute for […]
Genetics and Medicine). […]
U ml-1 penicillin and […] streptomycin. All cells were incubated at 37 °C in a humidified atmosphere with 5% CO2. […]
Fluorescence plate reader assay […]
quenching of YFP fluorescence at 37 °C using a microplate reader following the method of Galietta et al..9 The microplate reader (model: FLUORstar Omega; BMG LABTECH Ltd., Aylesbury, UK) was equipped with a syringe pump and excitation (500 ± 10 nm) and emission (535 ± 15 nm) filters (Chroma Technology GmbH, Olching, Germany). After washing cells twice with PBS (composition (mM): 137 NaCl, 2.7 KCl, 8.1 Na2HPO4, 1.5 KH2PO4, 1 CaCl2 and 0.5 MgCl2, pH 7.40), cells were incubated with test anionophores (1 – 50 µM) or the vehicle (DMSO [0.1 – 0.5% v v-1]) in 40 µl of PBS for 10 – 120 minutes according to the experimental design. Other compounds, including forskolin, ivacaftor and channel inhibitors were added to […]
the PBS bathing cells 10 minutes prior to PBS iodide addition, whereas UTP was added to cells with the PBS iodide solution. Fluorescence was measured for 14 seconds; 2 seconds before and 12 seconds after injection of 110 µl PBS iodide solution (137 mM Cl- replaced by I-) into each well (to obtain a final concentration of I- of 100 mM).
We expressed cell fluorescence values (F) relative to the fluorescence value immediately before I- injection (F0), excluding the initial decrease, which likely represents the quenching of extracellular YFP released from cells and signal reduction accompanying the increase in solution volume bathing cells. To quantify anion transport by test anionophores, we determined the initial slope of the fluorescence decay following I - addition by fitting first order exponential functions to the last 12 seconds of each fluorescence recording. In each experim ent, n values represent the mean of two replicates and all treatments were tested at least three times using different microplates. […]
FRT cells was selected and the cells were perfused with (i) PBS for 5 minutes then (ii) PBS containing I- (10 mM) (made by preparing PBS with 127 mM NaCl to maintain osmolarity) for 5 minutes and finally (iii) PBS for 30 minutes to remove thoroughly I- from the perfusion chamber. YFP-FRT cells were repeatedly treated with I- (10 mM) and then washed with PBS […]
During all interventions, the rate of solution perfusion was 8 – 10 ml min-1; temperature was 37 °C and except for the first

On the set-up of assay [4]: method as in PMID 22461434, PMID 21846096, PMID 29786913. The settings on record: mol% carrier to lipid for 50% Cl^– efflux in 270 s; 490 mM NaCl inside, 490 mM NaNO3 outside; ref [22], [16 and 25]; cited from earlier work.
Assay [5] is described as follows: Cl-/NO3- exchange in LUVs with preincorporated anionophore (lucigenin method). It counts as biochemical. The settings on record: transporter preincorporated in LUVs (70% POPC + 30% cholesterol), 25 mM NaCl gradient, 225 mM NaNO3; new compound or new data. The procedure: The four new anionophores were tested for affinity to Cl^– (in CHCl3 and DMSO, with tetra-alkylammonium counter-ions), and for anion transport (Cl^–/NO3^– exchange) when preloaded into 200 nm large unilamellar vesicles (LUVs). The latter assay was performed using the well-established “lucigenin method”[30] in which Cl^– influx into vesicles is followed through quenching of fluorescence from the halide-sensitive fluorophore lucigenin. The results are listed in Table 1, accompanied by corresponding values for the previously-reported compounds where available. […] In this test, anion transport by anionophores delivered externally to LUVs is compared with their action when preloaded into LUV membranes.[24],[29],[32]
3. Transport studies in vesicles
Transport measurements in vesicles with preincorporated anionophores.
1-Palmitoyl-2-oleoyl-sn-glycero-3-phosphocholine (POPC) was obtained from Avanti® Polar Lipids, Inc. An extrusion apparatus and 200 nm polycarbonate membranes were obtained from GC Technology Ltd. All lipid and receptor solutions were prepared using chloroform that had been deacidified by passage through a flash chromatography column containing basic alumina, and all aqueous solutions were prepared using deionised water that had been passed through a Millipore filtration system.
POPC and cholesterol solutions (~10 mM) in deacidified chloroform were combined with a solution of transporter in methanol or deacidified chloroform in a 5 mL round bottomed flask.
Volumes of the aliquots were calculated from the concentrations of the lipid solution to obtain a POPC to cholesterol ratio of 7:3 (for instance by combining 4.20 µmol POPC and 1.80 µmol cholesterol). The ratio of anionophore to lipid (POPC + cholesterol) was either 1:2500 or 1:25000, as specified in the experiments. The solvents from the lipid/receptor mixture were evaporated under a stream of N2 and the lipid film was dried under high vacuum for 1 h. The residue was hydrated with 500 µL of an aqueous solution of 10,10'-dimethyl-9,9'-biacridinium nitrate (lucigenin, 0.8 mM) and NaNO3 (225 mM), sonicated for 30 s and stirred for 1 h to give heterogeneous vesicles. Multilamellar vesicles were disrupted by 10 freeze-thaw cycles and then the solution was diluted to 1 mL (by adding 0.5 mL of 225 mM NaNO3) and carefully extruded (29 times) through a polycarbonate membrane (200 nm pore size) to give a uniform distribution of LUVs with an average diameter of ~200 nm.2 The external lucigenin was removed by passing the solution though a size exclusion column (containing ~2 g Sephadex 50G, eluted with 225 mM NaNO3). The collected vesicles were further diluted with NaNO3 solution (225 mM) to obtain a vesicle solution with 0.4 mM lipid concentration. 3.00 mL of this vesicle solution was placed in a quartz cuvette with a small stir bar and the fluorescence intensity (excitation at 450 nm, emission at 535 nm) was measured over time at 25 °C, using a PerkinElmer LS45 fluorescence spectrometer. 75 µL of aqueous NaCl (1.0 M in 225 mM NaNO3, to give an overall external chloride concentration of 25 mM) was added ~30 seconds after the start of the experiment and the fluorescence intensity was measured for another 14 […]
Fluorescence data were collected for at least four replicate experiments. The plateau (before addition of chloride) and the vertical drop (the first 1-2.5 seconds after chloride addition, due to quenching of external lucigenin) were removed. Next the data were normalized: all fluorescence values (F) were divided by the fluorescence value before addition of chloride (F0).
Initial rates (I) were obtained from fluorescence -decay curves (0-500 s) by fitting their inverse (F0/F) to a double exponential decay function:
Differentiating this gives F = abe−bt + cde−dt […]
and substituting t = 0 gives the following equation for initial rate: I = ab + cd Specific initial rates [I] were obtained by dividing the initial rates by the anionophore to lipid […]

Consider `O=C(Nc1cc(C(F)(F)F)cc(C(F)(F)F)c1)Nc1cccc2cc3cccc(NC(=O)Nc4cc(C(F)(F)F)cc(C(F)(F)F)c4)c3cc12` [Compound 22], for which the “K a to Cl^– in DMSO” value in assay [1] is on record as 3.0 × 10^3 M^–1. The “Specific initial rate [I]” value in assay [2] is recorded as 1900 s^–1. Moreover, in assay [3], the “anion transport activity in YFP-FRT cells (in words)” value was “intermediate levels” and the “Corrected absolute initial slope |dF/dT|” value is 9.0 ×10^–3 s^–1.

On to `O=c1c(Nc2ccc(C(F)(F)F)cc2)c(Nc2ccc(C(F)(F)F)cc2)c1=O` [Compound 2], for which the “EC50, 270 s” value in assay [4] was 0.06 mol%. Moreover, the “K a to Cl^– in DMSO” value in assay [1] was 4.6 × 10^2 M^–1. For the same compound, the “Corrected absolute initial slope |dF/dT|” value in assay [3] is 0.3 ×10^–3 s^–1.

For `CCc1c(CNC(=S)Nc2ccc([N+](=O)[O-])cc2)c(CC)c(CNC(=S)Nc2ccc([N+](=O)[O-])cc2)c(CC)c1CNC(=S)Nc1ccc([N+](=O)[O-])cc1` [Compound 4], the “K a to Cl^– in DMSO” value in assay [1] is given as 3.8 × 10^2 M^–1. Further, the “Specific initial rate [I]” value in assay [2] is on record as 5 s^–1. The “Corrected absolute initial slope |dF/dT|” value in assay [3] is listed as 0.2 ×10^–3 s^–1.

As for `O=C(Nc1ccc([N+](=O)[O-])cc1)Nc1cccc2cc3cccc(NC(=O)Nc4ccc([N+](=O)[O-])cc4)c3cc12` [Compound 20], in assay [1], the “K a to Cl^– in DMSO” value is 2.6 × 10^3 M^–1. For the same compound, in assay [2], the “Specific initial rate [I]” value is on record as 2100 s^–1. Also, in assay [3], the “anion transport activity in YFP-FRT cells (in words)” value is “intermediate levels” and the “Corrected absolute initial slope |dF/dT|” value is on record as 8.4 ×10^–3 s^–1.

For `CCc1c(CNC(=O)Nc2cc(C(F)(F)F)cc(C(F)(F)F)c2)c(CC)c(CNC(=O)Nc2cc(C(F)(F)F)cc(C(F)(F)F)c2)c(CC)c1CNC(=O)Nc1cc(C(F)(F)F)cc(C(F)(F)F)c1` [Compound 7], the “K a to Cl^– in DMSO” value in assay [1] is recorded as 3.9 × 10^2 M^–1. The “Specific initial rate [I]” value in assay [2] is 50 s^–1. Moreover, in assay [3], the “Corrected absolute initial slope |dF/dT|” value is 0.2 ×10^–3 s^–1.

In the case of `O=C(Nc1ccc(C(F)(F)F)cc1)Nc1cccc2cc3cccc(NC(=O)Nc4ccc(C(F)(F)F)cc4)c3cc12` [Compound 21], in assay [1], the “K a to Cl^– in DMSO” value is listed as 2.2 × 10^3 M^–1. The “Specific initial rate [I]” value in assay [2] is on record as 1200 s^–1. The “Corrected absolute initial slope |dF/dT|” value in assay [3] is reported as 1.7 ×10^–3 s^–1.

As for `O=c1c(Nc2ccccc2)c(Nc2ccccc2)c1=O` [Compound 1], the “EC50, 270 s” value in assay [4] is listed as 1.38 mol%. In assay [1], the “K a to Cl^– in DMSO” value was 2.6 × 10^2 M^–1. Also, the “Corrected absolute initial slope |dF/dT|” value in assay [3] is listed as 0 ×10^–3 s^–1.

Consider `O=c1c(Nc2cc(C(F)(F)F)cc(C(F)(F)F)c2)c(Nc2cc(C(F)(F)F)cc(C(F)(F)F)c2)c1=O` [Compound 3], for which the “EC50, 270 s” value in assay [4] was 0.01 mol%. For the same compound, the “K a to Cl^– in DMSO” value in assay [1] is reported as 6.4 × 10^2 M^–1. Further, the “Corrected absolute initial slope |dF/dT|” value in assay [3] is on record as 0 ×10^–3 s^–1. Moreover, in assay [5], the “Specific initial rate [I]” value is 75 ^b s^–1.
